In ChEMBL document CHEMBL1201862, “PubChem BioAssay data set” (2004):
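How tested: cells in 96-well plates exposed to compound for 48 hours at five concentrations. GI50 marks 50% less growth.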 Activity calls are given as the source filed them. Rule as the data show it: active = GI50 up to about 1.1 µM and inactive = higher.

Columns and labels:
Experiment in all cases: NCI-60 cell line screen, 48 h
786-0 = test system: 786-0
A498 = test system: A498
A549 = test system: A549
ACHN = test system: ACHN
BT-549 = test system: BT-549
CAKI-1 = test system: CAKI-1
CCRF-CEM = test system: CCRF-CEM
COLO 205 = test system: COLO 205
DU-145 = test system: DU-145
EKVX = test system: EKVX
HCC 2998 = test system: HCC 2998
HCT-116 = test system: HCT-116
HCT-15 = test system: HCT-15
HL-60 = test system: HL-60
HOP-62 = test system: HOP-62
HOP-92 = test system: HOP-92
HT-29 = test system: HT-29
Hs-578T = test system: Hs-578T
IGROV-1 = test system: IGROV-1
K562 = test system: K562
KM12 = test system: KM12
LOX IMVI = test system: LOX IMVI
M14 = test system: M14
MCF7 = test system: MCF7
MDA-MB-231 = test system: MDA-MB-231
MDA-MB-435 = test system: MDA-MB-435
MDA-N = test system: MDA-N
MOLT-4 = test system: MOLT-4
Malme-3M = test system: Malme-3M
NCI-H226 = test system: NCI-H226
NCI-H23 = test system: NCI-H23
NCI-H522 = test system: NCI-H522
NCI/ADR-RES = test system: NCI/ADR-RES
OVCAR-3 = test system: OVCAR-3
OVCAR-4 = test system: OVCAR-4
OVCAR-5 = test system: OVCAR-5
OVCAR-8 = test system: OVCAR-8
PC-3 = test system: PC-3
RPMI-8226 = test system: RPMI-8226
SF-268 = test system: SF-268
SF-295 = test system: SF-295
SF-539 = test system: SF-539
SK-MEL-28 = test system: SK-MEL-28
SK-MEL-2 = test system: SK-MEL-2
SK-MEL-5 = test system: SK-MEL-5
SK-OV-3 = test system: SK-OV-3
SN12C = test system: SN12C
SNB-19 = test system: SNB-19
SNB-75 = test system: SNB-75
SR = test system: SR
SW-620 = test system: SW-620
T47D = test system: T47D
TK-10 = test system: TK-10
U-251 = test system: U-251
UACC-257 = test system: UACC-257
UACC-62 = test system: UACC-62
UO-31 = test system: UO-31

Measured: GI50

Cc1cc(Nc2ccc(S(=O)(=O)O)cc2)c2ccccc2n1
> 100 µM: HCT-15
inactive: 786-0 > 100 µM | A498 > 100 µM | A549 > 100 µM | ACHN > 100 µM | BT-549 > 100 µM | CAKI-1 > 100 µM | CCRF-CEM > 100 µM | COLO 205 > 100 µM | DU-145 > 100 µM | EKVX > 100 µM | HCC 2998 > 100 µM | HCT-116 > 100 µM | HL-60 > 100 µM | HOP-62 40.9 µM | HOP-92 > 100 µM | HT-29 > 100 µM | Hs-578T > 100 µM | IGROV-1 > 100 µM | K562 > 100 µM | KM12 > 100 µM | LOX IMVI > 100 µM | M14 > 100 µM | MCF7 > 100 µM | MDA-MB-231 > 100 µM | MDA-MB-435 > 100 µM | MDA-N > 100 µM | MOLT-4 > 100 µM | Malme-3M > 100 µM | NCI-H226 > 100 µM | NCI-H23 > 100 µM | NCI-H522 > 100 µM | NCI/ADR-RES > 100 µM | OVCAR-3 > 100 µM | OVCAR-4 > 100 µM | OVCAR-5 > 100 µM | OVCAR-8 > 100 µM | PC-3 > 100 µM | RPMI-8226 > 100 µM | SF-268 > 100 µM | SF-295 > 100 µM | SF-539 > 100 µM | SK-MEL-28 > 100 µM | SK-MEL-2 > 100 µM | SK-MEL-5 > 100 µM | SK-OV-3 > 100 µM | SN12C > 100 µM | SNB-19 > 100 µM | SNB-75 > 100 µM | SR > 100 µM | SW-620 > 100 µM | T47D > 100 µM | TK-10 > 100 µM | U-251 > 100 µM | UACC-257 > 100 µM | UACC-62 > 100 µM | UO-31 > 100 µM
